Columns and labels:
A. baumannii ATCC 12457 = test: microbe, parasite or virus in culture
Description: (§1) The MIC for ampicillin or gentamicin against each isolate was determined for each test to serve as an internal quality control. The MICs of isolates were determined by visual reading and using an EnSpire Multimode Plate Reader 2300 atA600nm.
(§2) Briefly, antimicrobial stock solutions for robenidine and PMBN were prepared at a concentration of 12.8 mg/ml in DMSO. […] A 1 μl aliquot of the first compound from each combination was dispensed along the abscissa (from row A to G) of the 96-well microplate, while the second compound was dispensed along the ordinate (from column 12 to column 3) using an electronic multichannel pipette followed by 89 μl of LB broth. Each well of the plate was inoculated with an aliquot of 10 μl bacterial suspension at a concentration of 1-5 × 10^6 colony forming units (CFU) per ml. Subsequently, the plate was incubated at 37°C for 24 h. The fractional inhibitory concentration index (FICI) described the results of the combinations, and was calculated utilizing the following formula:
(§3) DRI = MIC of drug alone/MIC of drug in combination

E. coli ATCC 11229 = test: microbe, parasite or virus in culture
Description: as §1, §2, §3

A. baumannii ATCC 19606 = test: microbe, parasite or virus in culture
Description: as §1, §2, §3

P. putida ATCC 17428 = test: microbe, parasite or virus in culture
Description: as §1, §2, §3

P. aeruginosa ATCC 27853 = test: microbe, parasite or virus in culture
Description: as §1, §2, §3

E. coli ATCC 25922 = test: microbe, parasite or virus in culture
Description: as §1, §2, §3

K. pneumoniae ATCC 13883 = test: microbe, parasite or virus in culture
Description: as §1, §2, §3

P. mirabilis ATCC 43071 = test: microbe, parasite or virus in culture
Description: as §1, §2, §3

[1] = system: A. calcoaceticus (human clinical isolate); test: microbe, parasite or virus in culture
Description: as §1, §2, §3

[2] = system: preformed biofilms of P. aeruginosa PA01 and clinical isolates of P. aeruginosa; test: Antibiofilm susceptibility (MBEC device) and biofilm checkerboard; assay type: cell-based, Pseudomonas aeruginosa; details: P. aeruginosa biofilms; up to 128 μg/ml; 24 h
Description: Briefly, biofilms of P. aeruginosa PA01, two clinical isolates of P. aeruginosa isolates and two clinical isolates of S. pseudintermedius were formed by inoculating 150 μl of 10^7 CFU/ml of each bacterial suspension in the MBEC^TM device. The inoculated device was aerobically incubated on an orbital shaker at 37°C (OM11, Ratek Instruments Pty Ltd., Australia) for 24 h to produce equivalent (Uniform) biofilms on all pegs. […] Following antimicrobial challenge, the biofilms were rinsed twice with phosphate buffered saline (pH = 7) and disrupted via sonication (Soniclean, Model 160TD, Australia) for 10 min into the recovery medium. Viable cell counts were determined for recovered cells (colony-forming units per peg) after preparing a serial dilution and plating 10 μl in duplicates of each dilution onto plate count agar. Viable counts were then expressed as a percentage of the mean CFU of growth controls. MBEC was defined as the lowest concentration of antimicrobial agent that eradicates the biofilms recovered from the antimicrobial challenge.
Briefly, the MBEC^TM High-throughput assay system (MBEC^TM BioProducts, Innovotech, Canada) was used for the preparation of Gram-positive and Gram-negative biofilm producing bacteria as described above for antibiofilm susceptibility testing. […] Subsequently, the plate was incubated at 37°C for 24 h.

[3] = A. baumannii ATCC 12457, concentration of the labelled component
[4] = E. coli ATCC 11229, concentration of the labelled component
[5] = A. baumannii ATCC 19606, concentration of the labelled component
[6] = P. putida ATCC 17428, concentration of the labelled component
[7] = P. aeruginosa ATCC 27853, concentration of the labelled component
[8] = E. coli ATCC 25922, concentration of the labelled component
[9] = K. pneumoniae ATCC 13883, concentration of the labelled component
[10] = A. calcoaceticus human clinical isolate, concentration of the labelled component

N=C(N/N=C/c1ccc(Cl)cc1)N/N=C/c1ccc(Cl)cc1 [ROB, robenidine]
DRI EDTA:ROB (A. baumannii ATCC 12457; A. baumannii ATCC 12457, DRI of the labelled component): 32
MIC in combination EDTA:ROB (A. baumannii ATCC 12457; [3]): 2 µg/mL
MIC in combination PMBN:ROB (A. baumannii ATCC 12457; [3]): 2 µg/mL
MIC (A. baumannii ATCC 12457; Acinetobacter baumannii, ATCC12457, read-out: MIC, single drug): 64 µg/mL
MIC, single drug (E. coli ATCC 11229; E. coli ATCC 11229): >256 µg/mL
DRI EDTA:ROB (E. coli ATCC 11229; E. coli ATCC 11229, DRI of the labelled component): 32
MIC in combination EDTA:ROB (E. coli ATCC 11229; [4]): 8 µg/mL
MIC in combination PMBN:ROB (E. coli ATCC 11229; [4]): 8 µg/mL
MIC (E. coli ATCC 11229; Escherichia coli, ATCC11229, read-out: MIC, single drug): > 256 µg/mL
DRI EDTA:ROB (A. baumannii ATCC 19606; A. baumannii ATCC 19606, DRI of the labelled component): 8
MIC in combination EDTA:ROB (A. baumannii ATCC 19606; [5]): 4 µg/mL
MIC in combination PMBN:ROB (A. baumannii ATCC 19606; [5]): 2 µg/mL
MIC (A. baumannii ATCC 19606; Acinetobacter baumannii, ATCC19606, read-out: MIC, single drug): 32 µg/mL
DRI EDTA:ROB (P. putida ATCC 17428; P. putida ATCC 17428, DRI of the labelled component): 256
MIC in combination EDTA:ROB (P. putida ATCC 17428; [6]): 1.25 µg/mL
MIC in combination PMBN:ROB (P. putida ATCC 17428; [6]): 1:1 μg/ml
MIC (P. putida ATCC 17428; Pseudomonas putida, ATCC17428, read-out: MIC, single drug): > 256 µg/mL
MIC, single drug (P. aeruginosa ATCC 27853; P. aeruginosa ATCC 27853): >256 µg/mL
DRI EDTA:ROB (P. aeruginosa ATCC 27853; P. aeruginosa ATCC 27853, DRI of the labelled component): 256
MIC in combination EDTA:ROB (P. aeruginosa ATCC 27853; [7]): 1.25 µg/mL
MIC in combination PMBN:ROB (P. aeruginosa ATCC 27853; [7]): 1 µg/mL
MIC (P. aeruginosa ATCC 27853; Pseudomonas aeruginosa, ATCC27853, read-out: MIC, single drug): > 256 µg/mL
MIC, single drug (E. coli ATCC 25922; E. coli ATCC 25922): >256 µg/mL
DRI EDTA:ROB (E. coli ATCC 25922; E. coli ATCC 25922, DRI of the labelled component): 64
MIC in combination EDTA:ROB (E. coli ATCC 25922; [8]): 4 µg/mL
MIC in combination PMBN:ROB (E. coli ATCC 25922; [8]): 8 µg/mL
MIC (E. coli ATCC 25922; Escherichia coli, ATCC25922, read-out: MIC, single drug): > 256 µg/mL
MIC, single drug (K. pneumoniae ATCC 13883; K. pneumoniae ATCC 13883): >256 µg/mL
DRI EDTA:ROB (K. pneumoniae ATCC 13883; K. pneumoniae ATCC 13883, DRI of the labelled component): 2
MIC in combination EDTA:ROB (K. pneumoniae ATCC 13883; [9]): 128 µg/mL
MIC in combination PMBN:ROB (K. pneumoniae ATCC 13883; [9]): 4 µg/mL
MIC (K. pneumoniae ATCC 13883; Klebsiella pneumoniae, ATCC13883, read-out: MIC, single drug): > 256 µg/mL
MIC, single drug (P. mirabilis ATCC 43071; P. mirabilis ATCC 43071): >256 µg/mL
DRI EDTA:ROB (P. mirabilis ATCC 43071; P. mirabilis ATCC 43071, DRI of the labelled component): 256
MIC in combination EDTA:ROB (P. mirabilis ATCC 43071; P. mirabilis ATCC 43071, concentration of the labelled component): 1.25 µg/mL
MIC (P. mirabilis ATCC 43071; Proteus mirabilis, ATCC43071, read-out: MIC, single drug): > 256 µg/mL
DRI EDTA:ROB ([1]; A. calcoaceticus human clinical isolate, DRI of the labelled component): 32
MIC in combination EDTA:ROB [1, 10]: 0.125 µg/mL
MIC in combination PMBN:ROB [1, 10]: 0.5 µg/mL
MIC ([1]; Acinetobacter calcoaceticus, read-out: MIC, single drug): 4 µg/mL
antibiofilm activity [2]: did not show any antibiofilm activity

— article PMC6494957 (Frontiers in Microbiology, 2019)
